Measured values from ChEMBL document CHEMBL1141050, “Design and synthesis of a novel peptidomimetic inhibitor of HIV-1 Tat-TAR interactions: squaryldiamide as a new potential bioisostere of unsubstituted guanidine” (Bioorg Med Chem Lett, 2005).

Experiments:
Design in all cases: species or system Human immunodeficiency virus 1
Protein Tat [1] = biological target: T1, Protein Tat (Human immunodeficiency virus type 1 group M subtype B (isolate HXB2)(HIV-1), UniProt P04608); assay: In vitro binding affinity towards Tat/TAR to determine interaction between TAR RNA and Tat peptide at room temperature using fluorescence spectrophotometer; nb denotes no binding
T1 sequence (P04608 whole entry): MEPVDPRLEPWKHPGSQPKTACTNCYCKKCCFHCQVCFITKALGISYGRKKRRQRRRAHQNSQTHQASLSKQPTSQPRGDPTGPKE

Protein Tat [2] = biological target: T1, Protein Tat; assay: In vitro binding affinity towards Tat/TAR to determine interaction between TAR RNA and Tat peptide at room temperature using fluorescence spectrophotometer
Protein Tat [3] = biological target: T1, Protein Tat; assay: In vitro binding affinity towards Tat/TAR to determine interaction between TAR RNA and Tat peptide at room temperature using fluorescence spectrophotometer; mb denotes multiple binding

Kd (Protein Tat [2]) [µM]	Structure (SMILES)	other results
	N=c1c(O)c(O)/c1=N\CCCC(N)COC(=O)NC(CCCCN)COC(N)=O (configuration not stated)	Kd (Protein Tat [1]): Not Active
741	N=c1c(O)c(O)/c1=N\CCCC(N)COC(=O)NC(CCCN=C(N)N)COC(N)=O (configuration not stated)	
	NCCCC[C@H](COC(N)=O)NC(=O)CN(CCCCN)C(=O)OCCN	Kd (Protein Tat [1]): Not Active
1.8	N=C(N)NCCC[C@H](N)COC(=O)N(CCCCN)CC(=O)N[C@H](CCCCN)COC(N)=O	
7.7	N=c1c(O)c(O)/c1=N/CCC[C@H](N)COC(=O)N(CCCCN)CC(=O)N[C@H](CCCCN)COC(N)=O	
	NC(=O)OCCNC(=O)CNC(=O)OC[C@@H](N)CCCN=C(N)N	Kd (Protein Tat [3]): Multiple binding

Structure (SMILES)	Kd (Protein Tat [2]) [µM]	other results
NCCCC[C@H](COC(N)=O)NC(=O)CN(CCCCN)C(=O)OC[C@@H](N)CCCN=C(N)N[N+](=O)[O-]	952	
